The values that follow come from patent US12409201B2, “Care composition and use thereof” (priority 2020, dated 2025).

Data set [1] concerns Rat basophilic leukemia cells (RBL-2H3). The data set can be described thus: β-hexosaminidase level (ELISA) in A23187-stimulated RBL-2H3 cells, anti-allergy effect. In kind it is cell-based. As to conditions: positive control group, concentration not given; RBL-2H3, A23187 1 μg/mL; blank control = 100. Here is the method: (§1) Rat basophilic leukemia cells (RBL-2H3) is seeded in a 96-well cell culture plate, with each well containing 5*10^4 cells. Cells are incubated in a 37-degree Celsius incubator with 5% CO2 overnight to allow attachment to the culture plate. Replace the culture medium with culture medium containing the care composition (hereinafter referred to as AMDS) of different dilution rates (1/1600, 1/800, 1/400, 1/200, and 1/100) and control groups (a blank control group and a positive control group, which is incubated in culture medium containing quercetin). After 30 minutes of incubation, A23187 (1 μg/mL) is added and allowed reaction for an hour. β-hexosaminidase level is analyzed by applying cell culture supernatant to enzyme-linked immunosorbent assay (ELISA). Replace the culture medium with that containing MTT (0.5 mg/mL), followed with 2-hour incubation. Discard the MTT-medium solution, and add DMSO (150 μL/well) to each well. Let sit in room temperature for 10 minutes, allowing the purple formazan to fully dissolve. The cell survival rate is calculated and determined by detecting the optical density (O.D.) at wavelength 570 in a spectrophotometer. Cell survival rate (%)=(sample OD570/blank control group OD570)*100%. […] The lower the β-hexosaminidase, the greater the anti-allergy effect. […]
For orientation: An ELISA detects its analyte on a solid surface through an enzyme-linked reagent.

Data set [2] has the same test system. The data set can be described thus: MTT cell survival rate of RBL-2H3. Format: cell-based. The following applies: positive control group, concentration not given; RBL-2H3, MTT. The method, then: as §1

As for `O=c1c(O)c(-c2ccc(O)c(O)c2)oc2cc(O)cc(O)c12` [quercetin], in data set [1], the “β-hexosaminidase (%)” value amounted to 1.8%. For the same molecule, the “Cell survival rate (%)” value in data set [2] is recorded as 87.97%.
